Holding throughout (type): cell-based
Test [1] deals with S. aureus (Newman, clinical isolate). Briefly: MIC, S. aureus Newman. Conditions: Staphylococcus aureus. The text has this: (§1) We have collected MIC data for a total of 50 novel macrolides that this platform has produced against over 21 unique strains of B. subtilis, E. coli, S. aureus, S. pneumoniae, and H. influenzae, including several multidrug-resistant strains, with a special focus on macrolide resistant mechanisms (vide supra). Azithromycin was included as a control macrolide. CLSI standard procedures for broth dilution MIC determination were used. […] These genotypes can be constitutive or inducible. The finding that C4-epi (unnatural) isomers of the “azaketolide” macrolide class have enhanced activities relative to C4 natural isomers is very exciting.

The subject of another test is E. coli (MC4100). The test is described as follows: MIC, E. coli MC4100.
From the text: as §1

The subject of another test is E. coli strains. The test is described as follows: MIC against E. coli strains (Table M7). Conditions: Escherichia coli, ATCC25922, E. coli ATCC 25922. The gist of the method:
(§2)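 Following CLSI guidelines, each compound was serially diluted in broth against the bacterial strain and the MIC recorded. Azithromycin was included in parallel as a comparator macrolide.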

In the next test the test system is S. aureus strains. Briefly: MIC against S. aureus strains (Table M7). Conditions: Staphylococcus aureus. The gist of the method: as §2
Another test concerns S. pneumoniae strains. The test is described as follows: MIC against S. pneumoniae strains (Tables M7, M8). Conditions: Streptococcus pneumoniae. The text has this: CLSI standard procedures for broth dilution MIC determination were used. […] These genotypes can be constitutive or inducible.
A further test deals with E. faecalis strains. The test is described as follows: MIC against E. faecalis strains (Table M8). Conditions: Enterococcus faecalis, E. faecalis 29212.
Another test deals with A. baumannii strains. The test is described as follows: MIC against A. baumannii strains (Table M8). Conditions: Acinetobacter baumannii, BAA747, A. baumannii BAA747-1.
A further test deals with K. pneumoniae strains. The test is described as follows: MIC against K. pneumoniae strains (Table M8). Conditions: Klebsiella pneumoniae, K. pneumoniae 10031.
The test system of another test is H. influenzae strains. The test is described as follows: MIC against H. influenzae strains (Table M8). Conditions: Haemophilus influenzae. Summed up: as §2
Setting [2] is: S. aureus (Newman, clinical isolate), round 1.
Where [3] appears, read: Escherichia coli, round 1, read-out: MIC.
Where [4] appears, read: ATCC29213, S. aureus ATCC 29213, read-out: MIC S. aureus (ATCC 29213).
Where [5] appears, read: S. aureus 506, read-out: MIC S. aureus (506).
Setting [6] is: S. aureus 1708, read-out: MIC S. aureus (1708).
Where [7] appears, read: USA300, S. aureus USA300, read-out: MIC S. aureus (USA300).
The mark [8] stands for this setting: S. pneumoniae 160, read-out: MIC S. pneumonae (160).
[9] abbreviates: S. pneumoniae 1509, read-out: MIC S. pneumoniae (1509).
The mark [10] stands for this setting: S. pneumoniae 1533, read-out: MIC S. pneumoniae (1533).
[11] abbreviates: S. pneumoniae 1537, read-out: MIC S. pneumoniae (1537).
The mark [12] stands for this setting: S. pneumoniae 49619, read-out: MIC S. pneumoniae (49619).
[13] abbreviates: H. influenzae 49247, read-out: MIC H. influenzae (49247).
Where [14] appears, read: H. influenzae 49766, read-out: MIC H. influenzae (49766).
Setting [15] is: S. aureus (Neuman, clinical isolate), round 2.
[16] abbreviates: Escherichia coli, round 2, read-out: MIC.

≈ marks a conversion by molar mass, not a printed value. Like-named read-outs stand apart in the source and are kept apart here.

`CC[C@H]1OC(=O)[C@H](C)C(=O)[C@H](C)[C@@H](O[C@@H]2OC(C)CC(N(C)C)C2O)[C@](C)(OC)C[C@@H](C)CN[C@H](C)[C@H]2N(CCCCCn3cc(-c4cccc(N)c4)nn3)C(=O)O[C@]12C` (stereo partly drawn) [FSM-40349]: the MIC in test [1] (setting [2]) was 2 µg/mL (≈ 2.38 µM); with E. coli (MC4100) (setting [3]), 16 µg/mL (≈ 19 µM); in the test on E. coli strains, 8 µg/mL (≈ 9.5 µM); in the test with S. aureus strains (setting [4]), 1 µg/mL (≈ 1.19 µM); in the test on S. aureus strains (setting [5]), greater than 32 µg/mL; in the test on S. aureus strains (setting [6]) it was 1 µg/mL (≈ 1.19 µM). The MIC is 2 µg/mL (≈ 2.38 µM) with S. aureus strains (setting [7]); 0.125 µg/mL (≈ 0.148 µM) in the test on S. pneumoniae strains (setting [8]); 2 µg/mL (≈ 2.38 µM) with S. pneumoniae strains (setting [9]); greater than 32 µg/mL with S. pneumoniae strains (setting [10]); greater than 32 µg/mL with S. pneumoniae strains (setting [11]); no more than 0.0625 µg/mL in the test on S. pneumoniae strains (setting [12]). Further, the MIC came out at 0.125 µg/mL (≈ 0.148 µM) in the test on E. faecalis strains; 32 µg/mL (≈ 38 µM) against A. baumannii strains; 2 µg/mL (≈ 2.38 µM) in the test with K. pneumoniae strains; 0.5 µg/mL (≈ 0.594 µM) in the test on H. influenzae strains (setting [13]); 2 µg/mL (≈ 2.38 µM) with H. influenzae strains (setting [14]).

Consider `CC[C@H]1OC(=O)[C@H](C)C(=O)[C@H](C)[C@@H](O[C@@H]2OC(C)CC(N(C)C)C2O)[C@](C)(OC/C=C/c2cnc3ccccc3c2)C[C@@H](C)CN[C@H](C)[C@H]2NC(=O)O[C@@]21C` (stereo partly drawn) [FSM-20919], for which the MIC in test [1] (setting [15]) came to 0.5 µg/mL (≈ 0.652 µM); in test [1] (setting [2]), 0.25 µg/mL (≈ 0.326 µM); with E. coli (MC4100) (setting [3]), 2 µg/mL (≈ 2.61 µM); against E. coli (MC4100) (round 2), 2 µg/mL (≈ 2.61 µM); in the test with E. coli strains it was 4 µg/mL (≈ 5.22 µM); in the test on S. aureus strains (setting [4]), 0.25 µg/mL (≈ 0.326 µM). For the same compound, the MIC is greater than 32 µg/mL with S. aureus strains (S. aureus 183, read-out: MIC S. aureus (183)); greater than 32 µg/mL in the test on S. aureus strains (setting [5]); 0.25 µg/mL (≈ 0.326 µM) with S. aureus strains (setting [6]); 0.5 µg/mL (≈ 0.652 µM) in the test with S. aureus strains (setting [7]); no more than 0.0625 µg/mL with S. pneumoniae strains (setting [8]); 0.5 µg/mL (≈ 0.652 µM) with S. pneumoniae strains (setting [9]). The MIC was 32 µg/mL (≈ 41.7 µM) in the test with S. pneumoniae strains (setting [10]); 32 µg/mL (≈ 41.7 µM) with S. pneumoniae strains (setting [11]); no more than 0.0625 µg/mL in the test on S. pneumoniae strains (setting [12]); 0.5 µg/mL (≈ 0.652 µM) against E. faecalis strains; 16 µg/mL (≈ 20.9 µM) against A. baumannii strains; 16 µg/mL (≈ 20.9 µM) in the test with K. pneumoniae strains. In addition, the MIC in the test on H. influenzae strains (setting [13]) came to 1 µg/mL (≈ 1.3 µM); in the test on H. influenzae strains (setting [14]), 4 µg/mL (≈ 5.22 µM).

As to `CC[C@H]1OC(=O)[C@H](C)C(=O)[C@H](C)[C@@H](O[C@@H]2OC(C)CC(N(C)C)C2O)/C(C)=C/CN[C@H](C)[C@H]2N(CCCCn3cc(-c4ccccn4)nn3)C(=O)O[C@]12C` (stereo partly drawn) [FSM-30625], the MIC (in test [1] (setting [15]); in the test on E. coli (MC4100) (setting [16])) was greater than 32 µg/mL each time.

Take `CC[C@H]1OC(=O)[C@H](C)C(=O)[C@H](C)[C@@H](O[C@@H]2OC(C)CC(N(C)C)C2O)/C(C)=C/CN[C@H](C)[C@H]2N(CCCCn3cc(-c4cccc(N)c4)nn3)C(=O)O[C@]12C` (stereo partly drawn) [FSM-30624]: the MIC (in test [1] (setting [15]); in the test with E. coli (MC4100) (setting [16])) was greater than 32 µg/mL throughout.

Take `CC[C@H]1OC(=O)[C@H](C)C(=O)[C@H](C)[C@@H](O[C@@H]2OC(C)CC(N(C)C)C2O)/C(C)=C/CN(C)[C@H](C)[C@H]2N(CCCCn3cc(-c4cccc(N)c4)nn3)C(=O)O[C@]12C` (stereo partly drawn) [FSM-30633]: the MIC (in test [1] (setting [15]); in the test on E. coli (MC4100) (setting [16]); in the test with E. coli strains; with S. aureus strains (setting [4]); with S. aureus strains (setting [5]); in the test on S. aureus strains (setting [6])) was greater than 32 µg/mL throughout. The MIC in the test on S. aureus strains (setting [7]), in the test with S. pneumoniae strains (setting [8]), in the test with S. pneumoniae strains (setting [9]), in the test with S. pneumoniae strains (setting [10]), in the test with S. pneumoniae strains (setting [11]) and with S. pneumoniae strains (setting [12]) was greater than 32 µg/mL throughout. For the same compound, the MIC in the test with E. faecalis strains was greater than 32 µg/mL; in the test with A. baumannii strains it was greater than 32 µg/mL; with K. pneumoniae strains, greater than 32 µg/mL; in the test on H. influenzae strains (setting [13]), 32 µg/mL (≈ 40.9 µM); in the test on H. influenzae strains (setting [14]), greater than 32 µg/mL.

As to `CC[C@H]1OC(=O)[C@H](C)C(=O)[C@H](C)[C@@H](O[C@@H]2OC(C)CC(N(C)C)C2O)[C@](C)(OC)CCN[C@H](C)[C@H]2N(CCCCn3cc(-c4cccc(N)c4)nn3)C(=O)O[C@]12C` (stereo partly drawn) [FSM-30622], the MIC (in test [1] (setting [15]); in the test with E. coli (MC4100) (setting [16]); in the test with E. coli strains; in the test with S. aureus strains (setting [4]); in the test with S. aureus strains (setting [5]); in the test with S. aureus strains (setting [6])) was greater than 32 µg/mL each time. Besides, the MIC in the test with S. aureus strains (setting [7]), with S. pneumoniae strains (setting [8]), with S. pneumoniae strains (setting [9]), in the test with S. pneumoniae strains (setting [10]), in the test with S. pneumoniae strains (setting [11]) and with S. pneumoniae strains (setting [12]) was greater than 32 µg/mL in each case. The MIC against E. faecalis strains, with A. baumannii strains, in the test with K. pneumoniae strains, in the test on H. influenzae strains (setting [13]) and in the test on H. influenzae strains (setting [14]) was greater than 32 µg/mL each time.

The values above are taken from patent US9982005B2, “Macrolides and methods of their preparation and use” (President and Fellows of Harvard College, priority 2013, dated 2018).
